Reference: PubChem BioAssay AID602321 (The Scripps Research Institute Molecular Screening Center, 2012)
Calls of active or inactive are those of the source. How the calls were made is not given here.

Key:
Experiment in all cases: ABPP selectivity among brain hydrolases, two doses – biochemical, gel-based competitive ABPP, mouse brain membrane, set 3, selectivity assay for DAGLb inhibitor project, late-stage follow-up (AID 602321)
[1] = test system: LYPLA1; conditions: gel-based competitive ABPP fluorescence, stronger effect = higher value
[2] = test system: APEH; conditions: gel-based competitive ABPP fluorescence, APEH, stronger effect = higher value
[3] = target: Monoacylglycerol lipase ABHD6 (Mus musculus) (UniProt Q8R2Y0); conditions: gel-based competitive ABPP fluorescence, stronger effect = higher value
[4] = target: Acyl-protein thioesterase 2 (Mus musculus) (UniProt Q9WTL7); conditions: gel-based competitive ABPP fluorescence, stronger effect = higher value
[5] = test system: FAAH; conditions: gel-based competitive ABPP fluorescence, stronger effect = higher value
[6] = target: Acyl-protein thioesterase 1 (Mus musculus) + Monoacylglycerol lipase ABHD6 (Mus musculus) + Acyl-protein thioesterase 2 (Mus musculus) (UniProt P97823+Q8R2Y0+Q9WTL7); conditions: gel-based competitive ABPP fluorescence
[7] = test system: Acyl-protein thioesterase 1 (Mus musculus) + Monoacylglycerol lipase ABHD6 (Mus musculus) + Acyl-protein thioesterase 2 (Mus musculus); conditions: gel-based competitive ABPP fluorescence

Sequence of Monoacylglycerol lipase ABHD6 (Mus musculus) (Q8R2Y0 whole entry, looked up): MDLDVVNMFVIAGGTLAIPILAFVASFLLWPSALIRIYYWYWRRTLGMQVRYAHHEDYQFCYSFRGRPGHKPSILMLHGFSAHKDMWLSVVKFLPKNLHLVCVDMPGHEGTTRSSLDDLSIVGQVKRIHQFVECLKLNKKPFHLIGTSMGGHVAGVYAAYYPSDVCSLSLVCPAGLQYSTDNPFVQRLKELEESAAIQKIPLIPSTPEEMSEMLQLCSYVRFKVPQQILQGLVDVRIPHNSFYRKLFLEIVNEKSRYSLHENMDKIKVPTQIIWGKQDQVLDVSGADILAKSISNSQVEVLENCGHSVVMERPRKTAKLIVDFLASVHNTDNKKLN
Sequence of Acyl-protein thioesterase 2 (Mus musculus) (Q9WTL7 whole entry, looked up): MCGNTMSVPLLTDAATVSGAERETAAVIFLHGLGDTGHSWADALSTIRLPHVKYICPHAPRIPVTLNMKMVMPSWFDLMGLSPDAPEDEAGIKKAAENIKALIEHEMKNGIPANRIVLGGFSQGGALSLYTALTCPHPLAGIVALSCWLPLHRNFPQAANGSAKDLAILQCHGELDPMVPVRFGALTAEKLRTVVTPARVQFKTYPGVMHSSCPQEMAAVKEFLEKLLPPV
Sequence of Acyl-protein thioesterase 1 (Mus musculus) + Monoacylglycerol lipase ABHD6 (Mus musculus) + Acyl-protein thioesterase 2 (Mus musculus) (UniProt P97823+Q8R2Y0+Q9WTL7) (P97823 whole entry, looked up): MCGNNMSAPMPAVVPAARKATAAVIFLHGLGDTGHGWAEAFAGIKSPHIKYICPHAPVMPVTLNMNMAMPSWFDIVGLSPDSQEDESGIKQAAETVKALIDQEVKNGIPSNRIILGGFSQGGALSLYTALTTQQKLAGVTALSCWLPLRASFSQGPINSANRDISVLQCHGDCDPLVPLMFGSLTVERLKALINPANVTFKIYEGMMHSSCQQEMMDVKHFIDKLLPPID
Sequence of Acyl-protein thioesterase 1 (Mus musculus) + Monoacylglycerol lipase ABHD6 (Mus musculus) + Acyl-protein thioesterase 2 (Mus musculus) (UniProt P97823+Q8R2Y0+Q9WTL7) (Q8R2Y0 whole entry, looked up): as the sequence (Q8R2Y0 whole entry, looked up) above
Sequence of Acyl-protein thioesterase 1 (Mus musculus) + Monoacylglycerol lipase ABHD6 (Mus musculus) + Acyl-protein thioesterase 2 (Mus musculus) (UniProt P97823+Q8R2Y0+Q9WTL7) (Q9WTL7 whole entry, looked up): as the sequence (Q9WTL7 whole entry, looked up) above

Structure (SMILES)	inhibition ([1]; at 10 µM)	inhibition ([1]; inhibition, at 1 µM) [%]	inhibition ([2]; at 10 µM)	inhibition ([2]; inhibition, at 1 µM) [%]	inhibition ([3]; at 10 µM) [%]	inhibition ([3]; inhibition, at 1 µM) [%]	inhibition ([4]; LYPLA2, at 10 µM)	inhibition ([4]; LYPLA2, inhibition, at 1 µM) [%]	inhibition ([5]; at 10 µM)	inhibition ([5]; inhibition, at 1 µM) [%]	outcome [6]	outcome [7]
O=C(c1ccc(-c2ccc(-c3cn(C(=O)N4CCCCC4c4ccccc4)nn3)cc2)cc1)N1CCCCC1 (configuration not stated)	90%	15	25% (inactive)	0	98	98	90%	15	25% (inactive)	10		
O=C(c1ccc(-c2ccc(-c3cn(C(=O)N4CCCCC4Cc4ccccc4)nn3)cc2)cc1)N1CCCCC1 (configuration not stated)	0% (inactive)	0	0% (inactive)	0	98	98	0% (inactive)	0	0% (inactive)	0		
O=C(O)c1cccc(-c2ccc(-c3cn(C(=O)N4CCCCC4Cc4ccccc4)nn3)cc2)c1 (configuration not stated)	15% (inactive)	0									active	inactive
O=C(O)c1cccc(-c2ccc(-c3cn(C(=O)N4CCCCC4c4ccccc4)nn3)cc2)c1 (configuration not stated)	100%	85	98%	80	98	98	100%	85	90%	5		
O=C(c1cccc(-c2ccc(-c3cn(C(=O)N4CCCCC4c4ccccc4)nn3)cc2)c1)N1CCCCC1 (configuration not stated)	98%	20										inactive
O=C(O)c1cccc(-c2ccc(-c3cn(C(=O)N4CCCCC4CCc4ccccc4)nn3)cc2)c1 (configuration not stated)	25% (inactive)	0	0% (inactive)	0	98	98	25% (inactive)	0	95%	15		
